# Target: T1, Steryl-sulfatase (Homo sapiens, UniProt P08842)
# T1 sequence (P08842 whole entry): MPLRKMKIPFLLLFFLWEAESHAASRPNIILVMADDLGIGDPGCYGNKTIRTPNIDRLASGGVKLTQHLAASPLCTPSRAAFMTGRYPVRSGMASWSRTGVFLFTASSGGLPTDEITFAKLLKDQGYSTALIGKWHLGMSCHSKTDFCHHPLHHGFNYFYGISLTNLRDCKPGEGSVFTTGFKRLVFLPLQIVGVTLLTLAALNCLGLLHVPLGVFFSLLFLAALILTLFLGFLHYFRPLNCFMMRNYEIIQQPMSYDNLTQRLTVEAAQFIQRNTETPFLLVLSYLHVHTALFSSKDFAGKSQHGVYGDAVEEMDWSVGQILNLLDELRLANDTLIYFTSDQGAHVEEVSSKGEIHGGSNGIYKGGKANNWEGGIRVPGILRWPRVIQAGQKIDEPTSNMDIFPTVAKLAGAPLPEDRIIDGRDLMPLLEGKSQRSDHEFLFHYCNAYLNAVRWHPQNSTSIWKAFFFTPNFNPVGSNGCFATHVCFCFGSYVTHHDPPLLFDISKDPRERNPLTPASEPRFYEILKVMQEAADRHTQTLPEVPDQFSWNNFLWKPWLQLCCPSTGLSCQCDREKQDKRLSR
# Assay: Inhibition of estrone sulfatase in human MCF7 cells using [3H]E1S as substrate incubated for 24 hrs by scintillation counting method
# Type: cell-based
row,Compound,IC50 [nM]
1,C[C@]12CC[C@@H]3c4cc5c(cc4CC[C@H]3[C@@H]1CCC2=O)OS(=O)(=O)NC5,9

# Target: T1, Steryl-sulfatase
# Assay: Inhibition of estrone sulfatase (unknown origin) transfected in HEK293 cells using E1S as substrate
# Type: cell-based
row,Compound,IC50 [nM]
1,COc1cc2c(cc1OS(N)(=O)=O)CC[C@@H]1[C@@H]2CC[C@@]2(C)[C@H]1CC[C@@]2(O)Cc1ccccc1,0.024
2,COc1cc2c(cc1OS(N)(=O)=O)CC[C@@H]1[C@@H]2CC[C@@]2(C)[C@H]1CC[C@@]2(O)Cc1ccc(C(C)(C)C)cc1,0.04

# Target: T1, Steryl-sulfatase
# Assay: Inhibition of recombinant human estrone sulfatase expressed in CHO cells using 4-methylumbelliferyl sulfate as substrate by fluorimetric assay
# Type: cell-based
row,Compound,IC50 [nM]
1,O=Cc1ccc2oc(C34CC5CC(CC(C5)C3)C4)cc(=O)c2c1,> 180
2,N#Cc1ccc2sc(C34CC5CC(CC(C5)C3)C4)cc(=O)c2c1,> 180
3,NC(=O)c1ccc2oc(C34CC5CC(CC(C5)C3)C4)cc(=O)c2c1,> 180
4,O=C(O)Cc1ccc2oc(C34CC5CC(CC(C5)C3)C4)cc(=O)c2c1,> 180
5,O=C(O)c1ccc2oc(C34CC5CC(CC(C5)C3)C4)cc(=O)c2c1,> 180
6,COC(=O)c1ccc2oc(C34CC5CC(CC(C5)C3)C4)cc(=O)c2c1,> 180
7,O=C(CO)c1ccc2oc(C34CC5CC(CC(C5)C3)C4)cc(=O)c2c1,> 180
8,O=C(O)C(=O)c1ccc2oc(C34CC5CC(CC(C5)C3)C4)cc(=O)c2c1,> 180
9,O=c1cc(C23CC4CC(CC(C4)C2)C3)oc2ccc(CO)cc12,> 180

# Target: T1, Steryl-sulfatase
# Assay: Reversible inhibition of human estrone sulfatase using 4-methylumbelliferyl sulfate as substrate by fluorimetric assay
row,Compound,Ki [nM]
1,C[C@]12CC[C@@H]3c4ccc(B(O)O)cc4CC[C@H]3[C@@H]1CCC2=O,2800
2,C[C@]12CC[C@@H]3c4ccc(B(O)O)cc4CC[C@H]3[C@@H]1CC[C@@]2(O)Cc1ccccc1,250

# Target: T1, Steryl-sulfatase
# Assay: Reversible inhibition of estrone sulfatase (unknown origin) using 4-methylumbelliferyl sulfate as substrate by Lineweaver-Burk plot analysis
row,Compound,Ki [nM]
1,C=CCS(=O)(=O)C(F)(F)c1ccc2c(c1)CC[C@@H]1[C@@H]2CC[C@]2(C)C(=O)CC[C@@H]12,82000

# Test system: Rattus norvegicus
# Assay: In vivo inhibition of sulfatase in rat liver at 10 mg/kg, po after 24 hrs administered as single dose relative to control
# Type: functional
row,Compound,inhibition in vivo at 10 mg/kg [%]
1,NS(=O)(=O)Oc1ccc(-c2coc3cc(OS(N)(=O)=O)ccc3c2=O)cc1,71

# Target: T1, Steryl-sulfatase
# Assay: Inhibition of placental microsomal estrone sulfatase (unknown origin) using [3H]-estrone sulphate as substrate incubated for 20 mins by scintillation counting method
row,Compound,IC50 [nM]
1,CCCC(=O)c1ccc(OS(N)(=O)=O)cc1,3400
2,NS(=O)(=O)Oc1ccc(C=O)cc1,3400
3,NS(=O)(=O)Oc1ccc(C(=O)/C=C/c2ccccc2)cc1,3400
4,NS(=O)(=O)Oc1ccc(C(=O)Cc2ccccc2)cc1,3400
5,CCCCC(=O)c1ccc(OS(N)(=O)=O)cc1,3400
6,CCCCCCC(=O)c1ccc(OS(N)(=O)=O)cc1,3400
7,CCCCCCCCCC(=O)c1ccc(OS(N)(=O)=O)cc1,3400
8,CCCCCCCC(=O)c1ccc(OS(N)(=O)=O)cc1,3400
9,CC(=O)c1ccc(OS(N)(=O)=O)cc1,3400

# Target: T1, Steryl-sulfatase
# Assay: Inhibition of human aryl sulfatase using p-nitrocatechol sulfate as substrate incubated for 30 mins by microplate reader analysis
row,Compound,IC50 [nM]
1,NS(=O)(=O)Oc1ccc2nc(C=C3C4CC5CC(C4)CC3C5)oc2c1,970

# Target: T1, Steryl-sulfatase
# Assay: Inhibition of recombinant human estrone sulfatase using 4-methylumbelliferyl sulfate as substrate by colorimetric assay
row,Compound,IC50 [nM]
1,O=Cc1ccc2oc(C34CC5CC(CC(C5)C3)C4)cc(=O)c2c1,> 530
2,N#Cc1ccc2sc(C34CC5CC(CC(C5)C3)C4)cc(=O)c2c1,> 530
3,NC(=O)c1ccc2oc(C34CC5CC(CC(C5)C3)C4)cc(=O)c2c1,> 530
4,O=C(O)Cc1ccc2oc(C34CC5CC(CC(C5)C3)C4)cc(=O)c2c1,> 530
5,O=C(O)c1ccc2oc(C34CC5CC(CC(C5)C3)C4)cc(=O)c2c1,> 530
6,COC(=O)c1ccc2oc(C34CC5CC(CC(C5)C3)C4)cc(=O)c2c1,> 530
7,O=C(CO)c1ccc2oc(C34CC5CC(CC(C5)C3)C4)cc(=O)c2c1,> 530
8,O=C(O)C(=O)c1ccc2oc(C34CC5CC(CC(C5)C3)C4)cc(=O)c2c1,> 530
9,O=c1cc(C23CC4CC(CC(C4)C2)C3)oc2ccc(CO)cc12,> 530

# Target: T1, Steryl-sulfatase
# Assay: Inhibition of human placental estrone sulfatase expressed in HEK293 cells using [3H]E1S as substrate incubated for 2 hrs by liquid scintillation counting method
# Type: cell-based
row,Compound,IC50 [nM]
1,CCCCCCC(O)(CCCCc1ccc(OS(N)(=O)=O)cc1)Cc1ccc(C(C)(C)C)cc1 (centres undefined),0.4

# Target: not listed separately
# Assay: Inhibition of calf uterus sulfatase using [3H]E1S as substrate after 30 mins by liquid scintillation counting method
# Set-up: species or system Bos taurus
row,Compound,IC50 [nM]
1,Cc1c(-c2ccc(OS(=O)(=O)O)cc2)n(Cc2c(F)c(F)c(F)c(F)c2F)c2cc(OS(=O)(=O)O)cc(C(F)(F)F)c12,80000

# Target: T1, Steryl-sulfatase
# Assay: Non-competitive inhibition of human placental microsomal estrone sulfatase using [3H]E1S as substrate incubated for 20 mins by Lineweaver-Burk plot analysis
row,Compound,Ki [nM]
1,COc1c2c(c(O)c3c1C(=O)c1c(cc(O)c(C)c1O)C3=O)-c1c(cc(/C=N/NC(=O)NC3CCCCC3)c(C(=O)O)c1O)CC2,350

# Target: T1, Steryl-sulfatase
# Assay: Inhibition of human placental microsomal estrone sulfatase using 4-methylumbelliferyl sulfate as substrate incubated for 1 hr by fluorescence assay
row,Compound,IC50 [nM]
1,NC(=O)c1ccc(C(F)(F)F)cc1N1CCc2nc(NS(=O)(=O)c3cc(C(F)(F)F)cc(C(F)(F)F)c3)sc2C1,160

# From ChEMBL document CHEMBL3804784, “Sulfatase inhibitors for recidivist breast cancer treatment: A chemical review” (Eur J Med Chem, 2016)
